This is an account of results in ChEMBL document CHEMBL1140192, “Sorocenols G and H, anti-MRSA oxygen heterocyclic Diels-Alder-type adducts from Sorocea muriculata roots” (J Nat Prod, 2008).

What all share (type): functional, organism-based
For assay [1], the system named is Cryptococcus neoformans. The experiment in a line: Antifungal activity against Cryptococcus neoformans ATCC 90113 after 68 to 72 hrs.
Assay [2] concerns Candida albicans. The experiment in a line: Antifungal activity against Candida albicans ATCC 90028 after 18 to 24 hrs.
The test system of assay [3] is Aspergillus fumigatus. Description: Antifungal activity against Aspergillus fumigatus ATCC 90906 after 68 to 72 hrs.
Assay [4] deals with Staphylococcus aureus. Description: Antibacterial activity against methicillin-resistant Staphylococcus aureus ATCC 43300 after 18 to 24 hrs.
Assay [5] has as its system Mycobacterium intracellulare. Description: Antibacterial activity against Mycobacterium intracellular ATCC 23068 at 20 ug/mL after 68 to 72 hrs.
The test system of assay [6] is Pseudomonas aeruginosa. Description: Antibacterial activity against Pseudomonas aeruginosa ATCC 27853 at 20 ug/mL after 18 to 24 hrs.
In assay [7] the test system is Escherichia coli. Description: Antibacterial activity against Escherichia coli ATCC 35218 at 20 ug/mL after 18 to 24 hrs.

In brackets after ≈: the same amount, converted by molar mass. Activity calls are given as the source filed them.

As to `C[C@@H]1[C@H](O)[C@@H](C)/C=C/C=C/C=C/C=C/C=C/C=C/C=C/[C@H](O[C@@H]2O[C@H](C)[C@@H](O)[C@H](N)[C@@H]2O)C[C@@H]2O[C@](O)(C[C@@H](O)C[C@@H](O)[C@H](O)CC[C@@H](O)C[C@@H](O)CC(=O)O[C@H]1C)C[C@H](O)[C@H]2C(=O)O` [AMPHOTERICIN B], in assay [1], 900 nM corresponded to half-maximal inhibition (IC50), the MFC turned out to be 2.5 µM (≈ 2.31 µg/mL) and the MIC stood at 1.4 µM (≈ 1.29 µg/mL). In assay [2], this molecule displayed an IC50 of 300 nM, an MFC of 1.4 µM (≈ 1.29 µg/mL) and a minimal inhibitory concentration (MIC) of 0.7 µM (≈ 0.647 µg/mL). For the same molecule, in assay [3], the IC50 was determined as 1600 nM, the MFC was found to be 2.7 µM (≈ 2.5 µg/mL) and inhibition of growth (MIC) required 2.7 µM (≈ 2.5 µg/mL).
As to `O=C(O)c1cn(C2CC2)c2cc(N3CCNCC3)c(F)cc2c1=O` [CIPROFLOXACIN], in assay [4], the outcome was inactive and inhibition of growth (MIC) required 0.8 µM (≈ 0.265 µg/mL).
As for `CC1=C[C@@H]2c3c(O)cc(-c4cc5ccc(O)cc5o4)cc3O[C@]3(c4ccc(O)c5c4OC(C)(C)C=C5)Oc4cc(O)ccc4[C@H](C1)[C@@H]23` [SOROCENOL G], the result in assay [5], in assay [6], in assay [7] and in assay [3] was inactive. Also, the result in assay [1] and in assay [2] was Active. In addition, the IC50 in assay [4] is 1500 nM. The MBC in assay [4] came to 31.8 µM (≈ 20 µg/mL). For the same molecule, 4 µM (≈ 2.51 µg/mL) was the least that counted as inhibitory in assay [4] (MIC).
With `CC(C)=CCc1c(O)ccc(C(=O)[C@H]2[C@H](c3c(O)cc(-c4cc5ccc(O)cc5o4)cc3O)C=C(C)C[C@H]2c2ccc(O)cc2O)c1O` [SOROCENOL H], the result in assay [5], in assay [6] and in assay [7] was inactive. Besides, the IC50 in assay [1] was 5400 nM; in assay [2], 5400 nM; in assay [4] it was 500 nM; in assay [3] it was 10000 nM. The MFC was 7.7 µM (≈ 5 µg/mL) in assay [1], 30.8 µM (≈ 20 µg/mL) in assay [2] and 30.8 µM (≈ 20 µg/mL) in assay [3]. Further, the MIC in assay [1] came to 7.7 µM (≈ 5 µg/mL); in assay [2], 15.4 µM (≈ 9.99 µg/mL); in assay [4], 1.9 µM (≈ 1.23 µg/mL); in assay [3], 15.4 µM (≈ 9.99 µg/mL). The molecule further displayed an MBC in assay [4] of 30.8 µM (≈ 20 µg/mL).

Usually IC50 stands for the concentration needed to halve the response being measured. Low readings indicate greater potency, high ones weaker potency. The MFC is the smallest concentration meeting the test's criterion for killing the fungus. Low readings indicate greater fungicidal potency, high ones weaker fungicidal potency. By MIC is commonly meant the least concentration at which growth counts as inhibited. As usually defined, the MBC is the lowest tested concentration that kills the bacteria rather than only halting them. High values mean weaker bactericidal potency, low ones greater bactericidal potency.
